This passage reports relative viability results from the supplement of paper PMC10307832.

Holding throughout (experiment): relative viability (nuclei count vs DMSO), 5 days (fraction); higher = more cells survive
Compound in assay [1]: Cc1ccc(C(=O)Nc2ccc(CN3CCN(C)CC3)c(C(F)(F)F)c2)cc1C#Cc1cnc2cccnn12 [Ponatinib] + N=C(N)NC(=N)NCCc1ccccc1 [Phenformin] (partner 250 µM)
In a few lines:
(§1)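 Relative viability was taken as the ratio of nuclei in treated wells to nuclei in vehicle wells. Lung cancer cell lines in 1536-well plates received compounds by pin tool one day after seeding, either one drug alone or a fixed anchor-drug dose plus five library-drug doses (not always all listed) in √10 steps. Nuclei were counted on 4× images after 5 days of treatment, and values are medians of duplicate plates.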

Compound in assay [2]: Cc1ccc(C(=O)Nc2ccc(CN3CCN(C)CC3)c(C(F)(F)F)c2)cc1C#Cc1cnc2cccnn12 [Ponatinib] + C[C@@H](Oc1cc(-c2cnn(C3CCNCC3)c2)cnc1N)c1c(Cl)ccc(F)c1Cl [Crizotinib] (partner 1 µM)
In a few lines: as §1

Compound in assay [3]: Cc1ccc(C(=O)Nc2ccc(CN3CCN(C)CC3)c(C(F)(F)F)c2)cc1C#Cc1cnc2cccnn12 [Ponatinib] + Cc1nc(NC(=O)N2CCC[C@H]2C(N)=O)sc1-c1ccnc(C(C)(C)C(F)(F)F)c1 [Alpelisib] (partner 2 µM)
The procedure, abridged:
as §1

Compound in assay [4]: Cc1ccc(C(=O)Nc2ccc(CN3CCN(C)CC3)c(C(F)(F)F)c2)cc1C#Cc1cnc2cccnn12 [Ponatinib] + CC(=O)c1c(C)c2cnc(Nc3ccc(N4CCNCC4)cn3)nc2n(C2CCCC2)c1=O [Palbociclib] (partner 0.5 µM)
In a few lines: as §1

Compound in assay [5]: Cc1ccc(C(=O)Nc2ccc(CN3CCN(C)CC3)c(C(F)(F)F)c2)cc1C#Cc1cnc2cccnn12 [Ponatinib] + CCNC(=O)c1noc(-c2cc(C(C)C)c(O)cc2O)c1-c1ccc(CN2CCOCC2)cc1 [Luminespib] (partner 0.01 µM)
In a few lines:
as §1

As to UMC-11, the relative viability in assay [1] (first compound 0.002 µM) came out at 0.305; in assay [1] (first compound 0.006325 µM), 0.33; in assay [1] (first compound 0.06325 µM), 0.366; in assay [1] (first compound 0.2 µM) it was 0.317; in assay [2] (first compound 0.002 µM), 0.678; in assay [2] (first compound 0.006325 µM), 0.603. Further, the relative viability in assay [2] (first compound 0.06325 µM) was found to be 0.786; in assay [2] (first compound 0.2 µM), 0.612; in assay [3] (first compound 0.002 µM), 1.07; in assay [3] (first compound 0.006325 µM), 1.04; in assay [3] (first compound 0.06325 µM), 1.01; in assay [3] (first compound 0.2 µM), 0.951. Besides, the relative viability in assay [4] (first compound 0.006325 µM) amounted to 0.312; in assay [4] (first compound 0.06325 µM) it was 0.287; in assay [4] (first compound 0.2 µM) it was 0.346; in assay [5] (first compound 0.002 µM), 1.07; in assay [5] (first compound 0.006325 µM) it was 1.16; in assay [5] (first compound 0.06325 µM), 1.04. Further, in assay [5] (first compound 0.2 µM), the relative viability came to 0.979.
